Experiments:
Meloidogyne incognita = experiment: Meloidogyne test; type: in vivo; conditions: lettuce in sand, concentration of active compound 20 ppm
Protocol: [table] To produce a suitable preparation of active compound, 1 part by weight of active compound is mixed with the stated amounts of solvent and emulsifier, and the concentrate is diluted with water to the desired concentration. Containers are filled with sand, solution of active compound, Meloidogyne incognita egg/larvae suspension and lettuce seeds. The lettuce seeds germinate and the plants develop. On the roots, galls are formed. After the desired period of time, the nematicidal action is determined in % via the formation of galls. 100% means that no galls were found; 0% means that the number of galls on the treated plants corresponds to that on the untreated control.

[1] = system: green peach aphid (Myzus persicae); experiment: Myzus test; type: in vivo; conditions: broad bean seedlings dipped, concentration of active compound 1000 ppm
Protocol: [table] To produce a suitable preparation of active compound, 1 part by weight of active compound is mixed with the stated amount of solvent and the stated amount of emulsifier, and the concentrate is diluted with emulsifier-containing water to the desired concentrations. Broad bean seedlings (Vicia faba) infested by the green peach aphid (Myzus persicae) are dipped into a preparation of active compound of the desired concentration and placed into a dish made of plastic. After the desired period of time, the kill in % is determined. 100% means that all of the animals have been killed; 0% means that none of the animals have been killed.

SMILES	chromatographic logP (physchem)	further results
CON=C(C1=NOCCO1)c1ccccc1COc1ccn(Cc2cccc(C)c2)n1 [Example 32]	3.11	
CON=C(C1=NOCCO1)c1ccccc1COc1ccn(-c2ccccc2OC)n1 [Example 48]	2.87	
CON=C(C1=NOCCO1)c1ccccc1COc1ccn(-c2cc(C)ccc2C)n1 [Example 22]	3.52	
CON=C(C1=NOCCO1)c1ccccc1COc1ccn(-c2ccc(F)cc2)n1 [Example 4]	3.15	
CON=C(C1=NOCCO1)c1ccccc1COc1ccn(-c2ccc(Br)cc2)n1 [Example 3]	3.67	
CON=C(C1=NOCCO1)c1ccccc1COc1ccn(-c2cc(Cl)ccc2Cl)n1 [Example 27]	3.74	
CON=C(C1=NOCCO1)c1ccccc1COc1ccn(-c2c(Cl)cc(Cl)cc2Cl)n1 [Example 24]	3.74	
CON=C(C1=NOCCO1)c1ccccc1COc1ccn(-c2cc(Cl)cc(Cl)c2)n1 [Example 7]	4.24	
CON=C(C1=NOCCO1)c1ccccc1COc1ccn(-c2ccc(Cl)c(Cl)c2)n1 [Example 6]	4.02	
CON=C(C1=NOCCO1)c1ccccc1COc1ccn(Cc2ccc(Cl)cc2)n1 [Example 36]	3.19	
CON=C(C1=NOCCO1)c1ccccc1COc1ccn(-c2cccc3ccccc23)n1 [Example 31]	3.51	
CON=C(C1=NOCCO1)c1ccccc1COc1ccn(Cc2ccc(C(C)(C)C)cc2)n1 [Example 33]	3.97	
CON=C(C1=NOCCO1)c1ccccc1COc1ccn(-c2ccccc2C)n1 [Example 11]	3.15	
CON=C(C1=NOCCO1)c1ccccc1COc1ccn(-c2c(Cl)cccc2Cl)n1 [Example 17]	4.08	
CON=C(C1=NOCCO1)c1ccccc1COc1ccn(-c2cccc(Cl)c2Cl)n1 [Example 18]	3.59	
CCc1ccc(-n2ccc(OCc3ccccc3C(=NOC)C3=NOCCO3)n2)cc1 [Example 42]	3.76	
CON=C(C1=NOCCO1)c1ccccc1COc1ccn(-c2ccc(F)cc2F)n1 [Example 19]	3.28	
CON=C(C1=NOCCO1)c1ccccc1COc1ccn(-c2ccc(I)cc2)n1 [Example 46]	3.84	
CON=C(C1=NOCCO1)c1ccccc1COc1ccn(-c2ccc(Cl)cc2Cl)n1 [Example 14]	3.78	
CON=C(C1=NOCCO1)c1ccccc1COc1ccn(-c2cccc(Cl)c2)n1 [Example 8]	3.59	
CON=C(C1=NOCCO1)c1ccccc1COc1ccn(-c2ccc(C)cc2C)n1 [Example 25]	3.5	

SMILES	chromatographic logP (physchem)	further results
CON=C(C1=NOCCO1)c1ccccc1COc1ccn(Cc2ccccc2)n1 [Example 35]	2.79	
CON=C(C1=NOCCO1)c1ccccc1COc1ccn(-c2ccc(C)c(C)c2)n1 [Example 29]	3.68	
CON=C(C1=NOCCO1)c1ccccc1COc1ccn(-c2cccc(F)c2)n1 [Example 21]	3.24	
C=CCn1ccc(OCc2ccccc2C(=NOC)C2=NOCCO2)n1 [Example 44]	2.61	
CON=C(C1=NOCCO1)c1ccccc1COc1ccn(-c2ccccc2F)n1 [Example 20]	3.19	
CON=C(C1=NOCCO1)c1ccccc1COc1ccn(-c2ccc(C(C)C)cc2)n1 [Example 16]	4.08	
CON=C(C1=NOCCO1)c1ccccc1COc1ccn(CC2CCCCC2)n1 [Example 334]	3.52	
CON=C(C1=NOCCO1)c1ccccc1COc1ccn(-c2cccc(C)c2C)n1 [Example 28]	3.68	
CON=C(C1=NOCCO1)c1ccccc1COc1ccn(-c2ccc(OC)cc2)n1 [Example 39]	3	
CCc1ccccc1-n1ccc(OCc2ccccc2C(=NOC)C2=NOCCO2)n1 [Example 26]	3.47	
CON=C(C1=NOCCO1)c1ccccc1COc1ccn(-c2ccccc2Br)n1 [Example 2]	3.21	
CON=C(C1=NOCCO1)c1ccccc1COc1ccn(-c2ccccc2Cl)n1 [Example 9]	3.2	
CON=C(C1=NOCCO1)c1ccccc1COc1ccn(-c2ccccc2)n1 [Example 13]	3.06	
CON=C(C1=NOCCO1)c1ccccc1COc1ccn(-c2ccc(C#N)cc2)n1 [Example 12]	2.89	kill rate (nematicidal action via the formation of galls) (Meloidogyne incognita): 100%
CON=C(C1=NOCCO1)c1ccccc1COc1ccn(-c2ccc(Cl)cc2)n1 [Example 1, [2-({[1-(4-chlorophenyl)-1H-pyrazol-3-yl]oxy}methyl)phenyl](5,6-dihydro-1,4,2-dioxazin-3-yl)methanone O-methyl oxime]		kill rate [1]: 90%; kill rate (nematicidal action via the formation of galls) (Meloidogyne incognita): 100%
CON=C(C1=NOCCO1)c1ccccc1COc1ccn(-c2ccc(C(C)(C)C)cc2)n1 [Example 15]	4.33	
CON=C(C1=NOCCO1)c1ccccc1COc1ccn(-c2cc(C)cc(C)c2)n1 [Example 30]	3.79	
CON=C(C1=NOCCO1)c1ccccc1COc1ccn(-c2ccc(C)cc2)n1 [Example 5]	3.4	
CCOc1ccccc1-n1ccc(OCc2ccccc2C(=NOC)C2=NOCCO2)n1 [Example 43]	3.43	
CON=C(C1=NOCCO1)c1ccccc1COc1ccn(-c2cccc(Br)c2)n1 [Example 10]	3.68	

Source: patent US20030109702A1, “Pyrazolyl benzyl ethers” (priority 1999, published 2003)
